15 compounds from ChEMBL document CHEMBL1629461, “The novel benzopyran class of selective cyclooxygenase-2 inhibitors. Part 2: the second clinical candidate having a shorter and favorable human half-life” (Bioorg Med Chem Lett, 2010) can be followed below.

Bounds are passed on as bounds.

For data set [1], the species on record is Rattus norvegicus. The data set can be described thus: Antiarthritic activity in rat assessed as inhibition of adjuent-induced arthritic pain. The format is functional.
The species named for data set [2] is Rattus norvegicus. The data set is described as follows: animal or person. To be noted: read-out: INH.
The species entered for data set [3] is Rattus norvegicus. The data set can be described thus: Antiinflammatory activity in rat air pouch model assessed as inhibition of carrageenan-induced PGE2 production. It counts as functional.
Data set [4] concerns Rattus norvegicus. The data set is described as follows: Antiinflammatory activity in rat air pouch model assessed as inhibition of carrageenan-induced paw edema. The format is functional. In general terms: In the carrageenan paw model, swelling and tenderness develop within hours.
Data set [5] in a line: (§1) Half life in human. The format is ADME, organism-based. To be noted: in vivo.
Data set [6] in a line: Half life in dog. The format is ADME, organism-based, Canis lupus familiaris. To be noted: in vivo.
For data set [7], the species on record is Rattus norvegicus. The data set is described as follows: Antiinflammatory activity in rat air pouch model assessed as inhibition of carrageenan-induced inflammatory hyperalgesia. The format is functional.
The nature of data set [8]: Half life in rat. To be noted: in vivo. It counts as ADME, organism-based.
The species entered for data set [9] is Rattus norvegicus. The data set is described as follows: animal or person. To be noted: read-out: INH. This is another data set of the same source.
Data set [10] deals with Prostaglandin G/H synthase 1 (Homo sapiens, UniProt P23219).
Sequence of Prostaglandin G/H synthase 1 (P23219 whole entry): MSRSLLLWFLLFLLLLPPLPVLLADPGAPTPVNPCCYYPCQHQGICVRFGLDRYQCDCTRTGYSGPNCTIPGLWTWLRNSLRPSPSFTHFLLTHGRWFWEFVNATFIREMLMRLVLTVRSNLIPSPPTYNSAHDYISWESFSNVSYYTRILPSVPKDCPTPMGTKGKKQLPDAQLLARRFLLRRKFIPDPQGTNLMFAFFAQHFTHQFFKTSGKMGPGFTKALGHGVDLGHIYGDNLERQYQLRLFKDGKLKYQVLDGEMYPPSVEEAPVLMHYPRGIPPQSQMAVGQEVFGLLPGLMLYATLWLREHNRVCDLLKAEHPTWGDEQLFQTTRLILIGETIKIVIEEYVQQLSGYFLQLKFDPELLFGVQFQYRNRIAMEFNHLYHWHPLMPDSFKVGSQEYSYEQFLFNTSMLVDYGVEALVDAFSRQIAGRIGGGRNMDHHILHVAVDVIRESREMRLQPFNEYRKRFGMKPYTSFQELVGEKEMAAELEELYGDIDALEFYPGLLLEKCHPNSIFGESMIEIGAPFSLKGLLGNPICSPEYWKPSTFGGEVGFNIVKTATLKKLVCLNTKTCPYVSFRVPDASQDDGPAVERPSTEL
Data set [11] deals with T1, Prostaglandin G/H synthase 2 (Homo sapiens, UniProt P35354).
T1 sequence (P35354 whole entry): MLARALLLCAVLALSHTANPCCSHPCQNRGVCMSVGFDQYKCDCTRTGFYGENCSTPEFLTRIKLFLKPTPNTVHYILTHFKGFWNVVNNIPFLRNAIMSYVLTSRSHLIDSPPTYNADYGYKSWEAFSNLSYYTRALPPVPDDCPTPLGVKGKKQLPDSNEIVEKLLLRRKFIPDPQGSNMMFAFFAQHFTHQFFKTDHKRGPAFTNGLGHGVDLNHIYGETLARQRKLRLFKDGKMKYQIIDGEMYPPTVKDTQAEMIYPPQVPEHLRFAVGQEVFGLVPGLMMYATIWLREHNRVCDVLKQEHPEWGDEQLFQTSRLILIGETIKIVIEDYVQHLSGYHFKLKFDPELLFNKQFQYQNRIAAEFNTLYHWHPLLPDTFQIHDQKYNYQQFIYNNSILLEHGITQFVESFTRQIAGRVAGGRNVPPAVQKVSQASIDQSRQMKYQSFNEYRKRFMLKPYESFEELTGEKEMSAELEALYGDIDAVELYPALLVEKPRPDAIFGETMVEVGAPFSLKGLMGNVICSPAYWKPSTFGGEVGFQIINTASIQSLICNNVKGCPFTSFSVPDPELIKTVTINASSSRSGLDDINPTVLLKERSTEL

Data set [12] concerns Cynomolgus monkey. The data set can be described thus: Half life in cynomolgus monkey. The format is ADME, organism-based, Macaca fascicularis. To be noted: in vivo.
Data set [13] is filed under the species Homo sapiens. The data set is described as §1. The format is ADME, organism-based. To be noted: in vivo.
The test system of data set [14] is Liver microsomes. The data set can be described thus: Metabolic stability in human liver microsomes assessed as compound remaining. It counts as ADME, Microsome. In general terms: Microsomes from liver hold many membrane-bound enzymes, among them those of drug oxidation.

Regarding `CC(C)(C)c1cc2c(cc1Cl)C=C(C(=O)O)[C@@H](C(F)(F)F)O2` [TIGEMOCOXIB], the median effective dose (ED50) came to 0.08 mg/kg in data set [1], 0.43 mg/kg in data set [3], 2.7 mg/kg in [4] and 4 mg/kg in [7]. The inhibition in vivo at 2 mg/kg in data set [2] was 100%. For the same compound, the half-life was 34 h in data set [5], 18 h in data set [6] and 4 h in [8].

On to `CC(C)CCc1cc2c(cc1Cl)C=C(C(=O)O)C(C(F)(F)F)O2` (configuration not stated), for which, in data set [9], the inhibition in vivo at 10 mg/kg amounted to 51%.

As for `Nc1c(Cl)ccc2c1C=C(C(=O)O)C(C(F)(F)F)O2` (configuration not stated), the IC50 in data set [10] is > 100000 nM.

Regarding `O=C(O)C1=Cc2cc(Cl)c(OCC3CCCC3)c(Cl)c2OC1C(F)(F)F` (configuration not stated), the IC50 is < 140 nM in data set [10] and < 6 nM in data set [11].

In the case of `CC(C)COc1c(Cl)cc2c(c1Cl)O[C@@H](C(F)(F)F)C(C(=O)O)=C2`, the IC50 in [11] was < 28 nM.

Regarding `O=C(O)C1=Cc2cc(Cl)cc(Cl)c2O[C@@H]1C(F)(F)F`, the ED50 stood at 0.03 mg/kg in data set [1], 0.54 mg/kg in data set [3], 0.54 mg/kg in data set [4] and 2.6 mg/kg in data set [7]. Also, the t1/2 in data set [12] amounted to 14.2 h; in data set [13], 360 h. Moreover, the Stability in data set [14] was 100%.

For `CC(C)CSc1cc2c(cc1Cl)C=C(C(=O)O)C(C(F)(F)F)O2` (configuration not stated), in [9], the inhibition in vivo at 10 mg/kg came to 30%.

For the compound `CCC(CC)COc1cc2c(cc1Cl)C=C(C(=O)O)C(C(F)(F)F)O2` (configuration not stated), the inhibition in vivo at 10 mg/kg in [9] came out at 42%.

As to `CCC(CC)COc1c(Cl)cc2c(c1Cl)OC(C(F)(F)F)C(C(=O)O)=C2` (configuration not stated), the IC50 in data set [11] was < 21 nM.

For the compound `CC(C)(C)c1cc2c(cc1Cl)C=C(C(=O)O)C(C(F)(F)F)O2` (configuration not stated), in data set [9], the inhibition in vivo at 10 mg/kg was 100%. The Stability in [14] stood at 51%.

For `O=C(O)C1=Cc2cc(Cl)c(OCC3CCCCC3)c(Cl)c2OC1C(F)(F)F` (configuration not stated), in data set [11], the IC50 is < 34 nM.

`CCOc1c(Cl)ccc2c1C=C(C(=O)O)C(C(F)(F)F)O2` (configuration not stated): the half-maximal inhibitory concentration (IC50) in data set [10] and in [11] was > 100000 nM throughout.

Take `CC(C)CN(C)c1cc2c(cc1Cl)C=C(C(=O)O)C(C(F)(F)F)O2` (configuration not stated): the inhibition in vivo at 10 mg/kg in data set [9] was 52%.

Consider `CCCc1cc2c(cc1Cl)C=C(C(=O)O)C(C(F)(F)F)O2` (configuration not stated), for which the inhibition in vivo at 10 mg/kg in data set [9] is 49%.

Take `CC(C)(C)Oc1c(Cl)cc2c(c1Cl)OC(C(F)(F)F)C(C(=O)O)=C2` (configuration not stated): the half-maximal inhibitory concentration (IC50) in [10] was < 140 nM; in data set [11] it was < 28 nM.

The term ED50 denotes the midpoint of the dose-response relation. The half-life is the time needed for the level to fall by half in the phase considered. Broadly, the IC50 is the midpoint of a concentration-inhibition curve.
